This is an account of results in patent publication US12157746B2, “Tetrahydro-1H-pyrazino[2,1-a]isoindolylquinoline compounds for the treatment of autoimmune disease” (F. HOFFMANN-LA ROCHE AG, priority 2018, dated 2024).

A short description of this data set: Human microsomal stability assay. The data set is classed as in vitro ADME. The settings on record: human liver microsomes 0.5 mg/mL, 37° C., pH 7.4, NADPH regenerating system, 0-30 minutes. The procedure:
Human Microsomal Stability Assay
Human liver microsomes (Cat. NO.: 452117, Corning, USA) were preincubated with test compound for 10 minutes at 37° C. in 100 mM potassium phosphate buffer, pH 7.4. The reactions were initiated by adding NADPH regenerating system. The final incubation mixtures contained […] test compound, 0.5 mg/mL liver microsomal protein, 1 mM MgCl2, 1 mM NADP, 1 unit/mL isocitric dehydrogenase and 6 mM isocitric acid in 100 mM potassium phosphate buffer, pH 7.4. After incubation times of 0, 3, 6, 9, 15 and 30 minutes at 37° C., 300 μL of cold ACN (including internal standard) was added to 100 μL incubation mixture to terminate the reaction. Following precipitation and centrifugation, 100 μL supernatant will be taken out and added 300 uL water. The amount of compound remaining in the samples was determined by LC-MS/MS. Controls of no NADPH regenerating system at zero and 30 minutes were also prepared and analyzed. The results were categorized as: low (<7.0 mLJmin/kg), medium (7.0-16.2 mL/min/kg) and high (16.2-23.2 mLJmin/kg).
On the technique in general: Microsomes from liver hold many membrane-bound enzymes, among them those of drug oxidation.
Take `C[C@@H]1CN(c2ccc(C#N)n3nccc23)C[C@@H]2c3ccc(N4CCC(C)(N)CC4)cc3CN12` [Example 100, 4-[(4R,10bS)-8-(4-amino-4-methyl-1-piperidyl)-4-methyl-3,4,6,10b-tetrahydro-1H-pyrazino[2,1-a]isoindol-2-yl]pyrazolo[1,5-a]pyridine-7-carbonitrile]: the “CL (h)” value came out at 8.0 mL/min/kg. As for `C[C@@H]1CN(c2ccc(C#N)c3ncccc23)C[C@@H]2c3ccc(OC4CNC4)cc3CN12` [Example 27, 5-[(4R,10bS)-8-(azetidin-3-yloxy)-4-methyl-3,4,6,10b-tetrahydro-1H-pyrazino[2,1-a]isoindol-2-yl]quinoline-8-carbonitrile], the figure is 7.7 mL/min/kg; as for `C[C@@H]1CN(c2ccc(C#N)c3ncccc23)C[C@@H]2c3ccc(C(=O)N4C[C@@H]5C[C@H]4CN5)cc3CN12` [Example 87, 5-[(4R,10bS)-8-[(1S,4S)-2,5-diazabicyclo[2.2.1]heptane-2-carbonyl]-4-methyl-3,4,6,10b-tetrahydro-1H-pyrazino[2,1-a]isoindol-2-yl]quinoline-8-carbonitrile], 8.0 mL/min/kg.

On to `C[C@@H]1CN(c2ccc(C#N)c3ncccc23)C[C@@H]2c3ccc(C(=O)N4CCNCC4)cc3CN12` [Example 86, 5-[(4R,10bS)-4-methyl-8-(piperazine-1-carbonyl)-3,4,6,10b-tetrahydro-1H-pyrazino[2,1-a]isoindol-2-yl]quinoline-8-carbonitrile], for which the “CL (h)” value is given as 7.7 mL/min/kg.
